This passage reports IC50 and viability, T/C results from PubChem BioAssay AID2060508 (Molecular Pharmacology Branch, DTP, NCI, 2025).

Where only a bound is given, the exact number is not on record here.

A word on the IC50: it is the concentration at which inhibition is half-maximal. As a reminder, the viability, T/C is the result in the treated group divided by that in the control group, in per cent.
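Also: spheroids exposed to compounds for seven days.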
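For viability, T/C in this document: 100% = DMSO vehicle control viability.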

For the first assay, the system named is 454973-116-R2-J3-PDC spheroids, viability, % test/control. Description: Anticancer human tumor 454973-116-R2-J3-PDC patient-derived pancreatic carcinoma cell line growth inhibition [GQUAD]. The conditions noted are these: curve of first compound; second compound 0.0316 µM; spheroids with HUVEC and MSC. Summed up: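 Tumor cells were grown as complex spheroids with HUVEC endothelial cells and mesenchymal stem cells as stroma. G-quadruplex stabilizers were combined with targeted agents over half-log dilutions from near the clinical Cmax, or from 10 microM.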
As to `CC(C)n1c(=O)n(C)c2cnc3cc(F)c(-c4ccc(OCCCN5CCCCC5)nc4)cc3c21` + CN(C)c1ccc(Nc2c3ccc(NC(=O)CCN4CCCC4)cc3nc3cc(NC(=O)CCN4CCCC4)ccc23)cc1, the concentration for half-maximal inhibition (IC50) is more than 10000 nM.

For `CC1COCCN1c1cc(-c2ccnn2C)c2ccnc(-c3ccn[nH]3)c2n1` (configuration not stated) + CN(C)c1ccc(Nc2c3ccc(NC(=O)CCN4CCCC4)cc3nc3cc(NC(=O)CCN4CCCC4)ccc23)cc1, the IC50 worked out at 182 nM.

On to `CC1COCCN1c1cc(C2(O)CC3CCC(C2)O3)c2cnn(-c3ccn[nH]3)c2n1` (configuration not stated) + CN(C)c1ccc(Nc2c3ccc(NC(=O)CCN4CCCC4)cc3nc3cc(NC(=O)CCN4CCCC4)ccc23)cc1, for which the IC50 was found to be 176 nM.

Regarding `COc1ccc([C@@H](O)c2cc(-c3ncnc4cc(N5CCOCC5)ccc34)c(F)cc2Cl)nn1` + CN(C)c1ccc(Nc2c3ccc(NC(=O)CCN4CCCC4)cc3nc3cc(NC(=O)CCN4CCCC4)ccc23)cc1, the IC50 was more than 10000 nM.

Still in this assay, the particulars now being: curve of first compound; second compound 0.1 µM; spheroids with HUVEC and MSC.
`CC(C)n1c(=O)n(C)c2cnc3cc(F)c(-c4ccc(OCCCN5CCCCC5)nc4)cc3c21` + CN(C)c1ccc(Nc2c3ccc(NC(=O)CCN4CCCC4)cc3nc3cc(NC(=O)CCN4CCCC4)ccc23)cc1: the IC50 is more than 10000 nM.

Turning to `CC1COCCN1c1cc(-c2ccnn2C)c2ccnc(-c3ccn[nH]3)c2n1` (configuration not stated) + CN(C)c1ccc(Nc2c3ccc(NC(=O)CCN4CCCC4)cc3nc3cc(NC(=O)CCN4CCCC4)ccc23)cc1, the IC50 was 190 nM.

Consider `CC1COCCN1c1cc(C2(O)CC3CCC(C2)O3)c2cnn(-c3ccn[nH]3)c2n1` (configuration not stated) + CN(C)c1ccc(Nc2c3ccc(NC(=O)CCN4CCCC4)cc3nc3cc(NC(=O)CCN4CCCC4)ccc23)cc1, for which the IC50 turned out to be 174 nM.

Consider `COc1ccc([C@@H](O)c2cc(-c3ncnc4cc(N5CCOCC5)ccc34)c(F)cc2Cl)nn1` + CN(C)c1ccc(Nc2c3ccc(NC(=O)CCN4CCCC4)cc3nc3cc(NC(=O)CCN4CCCC4)ccc23)cc1, for which the IC50 is more than 10000 nM.

The same assay, now with this note: curve of first compound; second compound 0.316 µM; spheroids with HUVEC and MSC.
Take `CC(C)n1c(=O)n(C)c2cnc3cc(F)c(-c4ccc(OCCCN5CCCCC5)nc4)cc3c21` + CN(C)c1ccc(Nc2c3ccc(NC(=O)CCN4CCCC4)cc3nc3cc(NC(=O)CCN4CCCC4)ccc23)cc1: the IC50 is more than 10000 nM.

In the case of `CC1COCCN1c1cc(-c2ccnn2C)c2ccnc(-c3ccn[nH]3)c2n1` (configuration not stated) + CN(C)c1ccc(Nc2c3ccc(NC(=O)CCN4CCCC4)cc3nc3cc(NC(=O)CCN4CCCC4)ccc23)cc1, the concentration for half-maximal inhibition (IC50) was 190 nM.

In the case of `CC1COCCN1c1cc(C2(O)CC3CCC(C2)O3)c2cnn(-c3ccn[nH]3)c2n1` (configuration not stated) + CN(C)c1ccc(Nc2c3ccc(NC(=O)CCN4CCCC4)cc3nc3cc(NC(=O)CCN4CCCC4)ccc23)cc1, the IC50 was 154 nM.

On to `COc1ccc([C@@H](O)c2cc(-c3ncnc4cc(N5CCOCC5)ccc34)c(F)cc2Cl)nn1` + CN(C)c1ccc(Nc2c3ccc(NC(=O)CCN4CCCC4)cc3nc3cc(NC(=O)CCN4CCCC4)ccc23)cc1, for which the IC50 was determined as 9200 nM.

The same assay, now with this note: curve of first compound; second compound 1 µM; spheroids with HUVEC and MSC.
Consider `CC(C)n1c(=O)n(C)c2cnc3cc(F)c(-c4ccc(OCCCN5CCCCC5)nc4)cc3c21` + CN(C)c1ccc(Nc2c3ccc(NC(=O)CCN4CCCC4)cc3nc3cc(NC(=O)CCN4CCCC4)ccc23)cc1, for which the IC50 is more than 10000 nM.

`CC1COCCN1c1cc(-c2ccnn2C)c2ccnc(-c3ccn[nH]3)c2n1` (configuration not stated) + CN(C)c1ccc(Nc2c3ccc(NC(=O)CCN4CCCC4)cc3nc3cc(NC(=O)CCN4CCCC4)ccc23)cc1: the concentration for half-maximal inhibition (IC50) was determined as 171 nM.

With `CC1COCCN1c1cc(C2(O)CC3CCC(C2)O3)c2cnn(-c3ccn[nH]3)c2n1` (configuration not stated) + CN(C)c1ccc(Nc2c3ccc(NC(=O)CCN4CCCC4)cc3nc3cc(NC(=O)CCN4CCCC4)ccc23)cc1, the 50% inhibitory concentration (IC50) came to 146 nM.

In the case of `COc1ccc([C@@H](O)c2cc(-c3ncnc4cc(N5CCOCC5)ccc34)c(F)cc2Cl)nn1` + CN(C)c1ccc(Nc2c3ccc(NC(=O)CCN4CCCC4)cc3nc3cc(NC(=O)CCN4CCCC4)ccc23)cc1, the half-maximal inhibitory concentration (IC50) is 6560 nM.

The assay is the same for the next values; noted with them: curve of first compound; second compound 3.16 µM; spheroids with HUVEC and MSC.
For `CC(C)n1c(=O)n(C)c2cnc3cc(F)c(-c4ccc(OCCCN5CCCCC5)nc4)cc3c21` + CN(C)c1ccc(Nc2c3ccc(NC(=O)CCN4CCCC4)cc3nc3cc(NC(=O)CCN4CCCC4)ccc23)cc1, the IC50 was more than 10000 nM.

On to `CC1COCCN1c1cc(-c2ccnn2C)c2ccnc(-c3ccn[nH]3)c2n1` (configuration not stated) + CN(C)c1ccc(Nc2c3ccc(NC(=O)CCN4CCCC4)cc3nc3cc(NC(=O)CCN4CCCC4)ccc23)cc1, for which the IC50 worked out at 141 nM.

Turning to `CC1COCCN1c1cc(C2(O)CC3CCC(C2)O3)c2cnn(-c3ccn[nH]3)c2n1` (configuration not stated) + CN(C)c1ccc(Nc2c3ccc(NC(=O)CCN4CCCC4)cc3nc3cc(NC(=O)CCN4CCCC4)ccc23)cc1, the concentration for half-maximal inhibition (IC50) is 167 nM.

In the case of `COc1ccc([C@@H](O)c2cc(-c3ncnc4cc(N5CCOCC5)ccc34)c(F)cc2Cl)nn1` + CN(C)c1ccc(Nc2c3ccc(NC(=O)CCN4CCCC4)cc3nc3cc(NC(=O)CCN4CCCC4)ccc23)cc1, the IC50 stood at 5390 nM.

The same assay, now with this note: curve of first compound; second compound 10 µM; spheroids with HUVEC and MSC.
For `CC(C)n1c(=O)n(C)c2cnc3cc(F)c(-c4ccc(OCCCN5CCCCC5)nc4)cc3c21` + CN(C)c1ccc(Nc2c3ccc(NC(=O)CCN4CCCC4)cc3nc3cc(NC(=O)CCN4CCCC4)ccc23)cc1, the IC50 is 4490 nM.

`CC1COCCN1c1cc(-c2ccnn2C)c2ccnc(-c3ccn[nH]3)c2n1` (configuration not stated) + CN(C)c1ccc(Nc2c3ccc(NC(=O)CCN4CCCC4)cc3nc3cc(NC(=O)CCN4CCCC4)ccc23)cc1: the half-maximal inhibitory concentration (IC50) came out at 79 nM.

As to `CC1COCCN1c1cc(C2(O)CC3CCC(C2)O3)c2cnn(-c3ccn[nH]3)c2n1` (configuration not stated) + CN(C)c1ccc(Nc2c3ccc(NC(=O)CCN4CCCC4)cc3nc3cc(NC(=O)CCN4CCCC4)ccc23)cc1, the half-maximal inhibitory concentration (IC50) was determined as 99.5 nM.

Regarding `COc1ccc([C@@H](O)c2cc(-c3ncnc4cc(N5CCOCC5)ccc34)c(F)cc2Cl)nn1` + CN(C)c1ccc(Nc2c3ccc(NC(=O)CCN4CCCC4)cc3nc3cc(NC(=O)CCN4CCCC4)ccc23)cc1, the IC50 worked out at 2890 nM.

The assay is the same for the next values; noted with them: second compound 0.0316 µM; first compound 0.0316 µM; stronger effect = lower value; spheroids with HUVEC and MSC.
In the case of `CC(C)n1c(=O)n(C)c2cnc3cc(F)c(-c4ccc(OCCCN5CCCCC5)nc4)cc3c21` + CN(C)c1ccc(Nc2c3ccc(NC(=O)CCN4CCCC4)cc3nc3cc(NC(=O)CCN4CCCC4)ccc23)cc1, the viability, T/C was 108%.

In the case of `CC1COCCN1c1cc(-c2ccnn2C)c2ccnc(-c3ccn[nH]3)c2n1` (configuration not stated) + CN(C)c1ccc(Nc2c3ccc(NC(=O)CCN4CCCC4)cc3nc3cc(NC(=O)CCN4CCCC4)ccc23)cc1, the viability, T/C is 97.9%.

As to `CC1COCCN1c1cc(C2(O)CC3CCC(C2)O3)c2cnn(-c3ccn[nH]3)c2n1` (configuration not stated) + CN(C)c1ccc(Nc2c3ccc(NC(=O)CCN4CCCC4)cc3nc3cc(NC(=O)CCN4CCCC4)ccc23)cc1, the viability, T/C is 106%.

Take `COc1ccc([C@@H](O)c2cc(-c3ncnc4cc(N5CCOCC5)ccc34)c(F)cc2Cl)nn1` + CN(C)c1ccc(Nc2c3ccc(NC(=O)CCN4CCCC4)cc3nc3cc(NC(=O)CCN4CCCC4)ccc23)cc1: the viability, T/C is 101%.

Still in this assay, the particulars now being: second compound 0.0316 µM; first compound 0.1 µM; stronger effect = lower value; spheroids with HUVEC and MSC.
Consider `CC(C)n1c(=O)n(C)c2cnc3cc(F)c(-c4ccc(OCCCN5CCCCC5)nc4)cc3c21` + CN(C)c1ccc(Nc2c3ccc(NC(=O)CCN4CCCC4)cc3nc3cc(NC(=O)CCN4CCCC4)ccc23)cc1, for which the viability, T/C is 94.8%.

On to `CC1COCCN1c1cc(-c2ccnn2C)c2ccnc(-c3ccn[nH]3)c2n1` (configuration not stated) + CN(C)c1ccc(Nc2c3ccc(NC(=O)CCN4CCCC4)cc3nc3cc(NC(=O)CCN4CCCC4)ccc23)cc1, for which the viability, T/C was 66.8%.

With `CC1COCCN1c1cc(C2(O)CC3CCC(C2)O3)c2cnn(-c3ccn[nH]3)c2n1` (configuration not stated) + CN(C)c1ccc(Nc2c3ccc(NC(=O)CCN4CCCC4)cc3nc3cc(NC(=O)CCN4CCCC4)ccc23)cc1, the viability, T/C was 63.8%.

For `COc1ccc([C@@H](O)c2cc(-c3ncnc4cc(N5CCOCC5)ccc34)c(F)cc2Cl)nn1` + CN(C)c1ccc(Nc2c3ccc(NC(=O)CCN4CCCC4)cc3nc3cc(NC(=O)CCN4CCCC4)ccc23)cc1, the viability, T/C is 94.6%.

The same assay, now with this note: second compound 0.0316 µM; first compound 0.316 µM; stronger effect = lower value; spheroids with HUVEC and MSC.
As for `CC(C)n1c(=O)n(C)c2cnc3cc(F)c(-c4ccc(OCCCN5CCCCC5)nc4)cc3c21` + CN(C)c1ccc(Nc2c3ccc(NC(=O)CCN4CCCC4)cc3nc3cc(NC(=O)CCN4CCCC4)ccc23)cc1, the viability, T/C is 104%.

For `CC1COCCN1c1cc(-c2ccnn2C)c2ccnc(-c3ccn[nH]3)c2n1` (configuration not stated) + CN(C)c1ccc(Nc2c3ccc(NC(=O)CCN4CCCC4)cc3nc3cc(NC(=O)CCN4CCCC4)ccc23)cc1, the viability, T/C is 35.2%.

For the compound `CC1COCCN1c1cc(C2(O)CC3CCC(C2)O3)c2cnn(-c3ccn[nH]3)c2n1` (configuration not stated) + CN(C)c1ccc(Nc2c3ccc(NC(=O)CCN4CCCC4)cc3nc3cc(NC(=O)CCN4CCCC4)ccc23)cc1, the viability, T/C was 35.4%.

With `COc1ccc([C@@H](O)c2cc(-c3ncnc4cc(N5CCOCC5)ccc34)c(F)cc2Cl)nn1` + CN(C)c1ccc(Nc2c3ccc(NC(=O)CCN4CCCC4)cc3nc3cc(NC(=O)CCN4CCCC4)ccc23)cc1, the viability, T/C was 96.3%.

Still in this assay, the particulars now being: second compound 0.0316 µM; first compound 1 µM; stronger effect = lower value; spheroids with HUVEC and MSC.
For `CC(C)n1c(=O)n(C)c2cnc3cc(F)c(-c4ccc(OCCCN5CCCCC5)nc4)cc3c21` + CN(C)c1ccc(Nc2c3ccc(NC(=O)CCN4CCCC4)cc3nc3cc(NC(=O)CCN4CCCC4)ccc23)cc1, the viability, T/C was 99.2%.

For the compound `CC1COCCN1c1cc(-c2ccnn2C)c2ccnc(-c3ccn[nH]3)c2n1` (configuration not stated) + CN(C)c1ccc(Nc2c3ccc(NC(=O)CCN4CCCC4)cc3nc3cc(NC(=O)CCN4CCCC4)ccc23)cc1, the viability, T/C is 23%.

As for `CC1COCCN1c1cc(C2(O)CC3CCC(C2)O3)c2cnn(-c3ccn[nH]3)c2n1` (configuration not stated) + CN(C)c1ccc(Nc2c3ccc(NC(=O)CCN4CCCC4)cc3nc3cc(NC(=O)CCN4CCCC4)ccc23)cc1, the viability, T/C is 23.3%.

Consider `COc1ccc([C@@H](O)c2cc(-c3ncnc4cc(N5CCOCC5)ccc34)c(F)cc2Cl)nn1` + CN(C)c1ccc(Nc2c3ccc(NC(=O)CCN4CCCC4)cc3nc3cc(NC(=O)CCN4CCCC4)ccc23)cc1, for which the viability, T/C was 82.8%.

Still in this assay, the particulars now being: second compound 0.0316 µM; first compound 3.16 µM; stronger effect = lower value; spheroids with HUVEC and MSC.
As to `CC(C)n1c(=O)n(C)c2cnc3cc(F)c(-c4ccc(OCCCN5CCCCC5)nc4)cc3c21` + CN(C)c1ccc(Nc2c3ccc(NC(=O)CCN4CCCC4)cc3nc3cc(NC(=O)CCN4CCCC4)ccc23)cc1, the viability, T/C is 78.7%.

Consider `CC1COCCN1c1cc(-c2ccnn2C)c2ccnc(-c3ccn[nH]3)c2n1` (configuration not stated) + CN(C)c1ccc(Nc2c3ccc(NC(=O)CCN4CCCC4)cc3nc3cc(NC(=O)CCN4CCCC4)ccc23)cc1, for which the viability, T/C is 24%.
